Measurements reported in article doi:10.1101/2020.06.23.167346v1 (biorxiv, 2020).

Biological target: T1, TcAK (T. cruzi arginine kinase) (Trypanosoma cruzi, UniProt O96507)
T1 sequence (O96507 1-357): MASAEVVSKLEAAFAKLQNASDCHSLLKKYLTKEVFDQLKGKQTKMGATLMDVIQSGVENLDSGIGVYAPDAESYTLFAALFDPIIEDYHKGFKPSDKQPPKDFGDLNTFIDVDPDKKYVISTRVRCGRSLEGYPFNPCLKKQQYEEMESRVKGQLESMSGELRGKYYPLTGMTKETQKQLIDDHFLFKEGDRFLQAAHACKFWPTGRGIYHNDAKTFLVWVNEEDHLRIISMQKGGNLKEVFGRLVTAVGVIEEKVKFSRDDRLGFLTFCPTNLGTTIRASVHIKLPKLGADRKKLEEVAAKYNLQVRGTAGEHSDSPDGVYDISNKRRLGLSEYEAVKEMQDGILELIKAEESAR
Experiment: coupled pyruvate kinase / lactate dehydrogenase assay, NADH absorbance at […] nm
Type: biochemical

In the case of `COc1cc(CNC(=O)CCCC/C=C/C(C)C)ccc1O` [capsaicin, (E)-N-(4-hydroxy-3-methoxybenzyl)-8-methyl-6-nonenamide], the IC50 is reported as ~800 µM.
